Data on 24 compounds can be found in patent publication US20230331675A1, “AROMATIC ETHYLENE COMPOUND AND PREPARATION METHOD THEREFOR, AND INTERMEDIATE, PHARMACEUTICAL COMPOSITION, AND APPLICATION THEREOF” (GUANGZHOU MAXINOVEL PHARMACEUTICALS CO., LTD., priority 2020, published 2023).

Each structure is given as a SMILES string.

The assay concerns the target PD-1/PD-L1 (Homo sapiens (Human), UniProt Q9NZQ7). The experiment in a line: Homogeneous time-resolved fluorescence (HTRF) binding assay. Particulars: CisBio kit, read-out: IC50 of compounds binding to PD-1/PD-L1. An excerpt: Effect embodiment 1: Homogenouse time-resolved fluorescence
Homogeneous time-resolved fluorescence (HTRF) binding assay was used to determine the binding ability of the compound of the present disclosure to PD-1/PD-L1.
The purchased kit (CisBio, #64CUS000C-1) contained reagents required for assays such as PD-1, PD-L1, anti-tag1-Eu, Anti-tag2-XL665, dilute buffer, and detection buffer.
1. The compound was formulated to 10 concentrations with a 3-fold gradient with 100% DMSO.
2. The DMSO solution of the compound was added to the dilute buffer, mixed thoroughly, then transferred to a 96-well plate.
3. PD-L1 was diluted with dilute buffer, then added to the above 96-well plate.
4. PD-1 was diluted with dilute buffer and added to the above 96-well plate, which was then incubated at room temperature for 30 minutes.
5. A portion of anti-tag1-Eu and a portion of anti-tag2-XL665 were added to the detection buffer, mixed thoroughly and transferred to the above 96-well plate.
6. The mixture in the above 96-well plate was incubated at room temperature for 1 to 24 hours.
7. HTRF values were read with Envision.

Chain of PD-1/PD-L1 (Q9NZQ7 19-238): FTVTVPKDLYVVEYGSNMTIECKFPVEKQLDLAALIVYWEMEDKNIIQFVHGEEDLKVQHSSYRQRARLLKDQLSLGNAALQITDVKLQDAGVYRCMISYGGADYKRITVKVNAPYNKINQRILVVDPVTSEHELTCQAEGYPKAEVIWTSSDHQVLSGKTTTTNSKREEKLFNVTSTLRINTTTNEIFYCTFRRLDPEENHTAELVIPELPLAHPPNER

For the compound `N#Cc1c(/C=C/c2ccc(CN3CCCC[C@H]3C(=O)O)cc2C(F)(F)F)cccc1-c1ccccc1` [Compound 1, (S,E)-1-(4-(2-(2-Cyano-[1,1′-biphenyl]-3-yl)vinyl)-3-trifluoromethylbenzyl)piperidine-2-carboxylic acid], the IC50 is 10.2 nM. The figure for `N#Cc1c(/C=C/c2ccc(CN3CCCC[C@H]3C(=O)O)cc2Cl)cccc1-c1ccccc1` [Compound 2, (S,E)-1-(3-Chloro-4-(2-(2-cyano-[1,1′-biphenyl]-3-yl)vinyl)benzyl)piperidine-2-carboxylic acid] is 26.3 nM; for `Cc1c(/C=C/c2ccc(CN3CCCC[C@H]3C(=O)O)cc2Cl)cccc1-c1ccccc1` [Compound 3, (S,E)-1-(3-Chloro-4-(2-(2-methyl-[1,1′-biphenyl]-3-yl)vinyl)benzyl)piperidine-2-carboxylic acid] it is 87.1 nM; for `Cc1c(/C=C/c2ccc(CN3CCCC[C@H]3C(=O)O)cc2C(F)(F)F)cccc1-c1ccccc1` [Compound 4, (S,E)-1-(4-(2-(2-Methyl-[1,1′-biphenyl]-3-yl)vinyl)-3-trifluoromethylbenzyl)piperidine-2-carboxylic acid] it is 10.7 nM. As for `Cc1cc(/C=C/c2cccc(-c3ccccc3)c2C)c(Cl)cc1CN1CCCC[C@H]1C(=O)O` [Compound 5, (S,E)-1-(5-Chloro-2-methyl-4-(2-(2-methyl-[1,1′-biphenyl]-3-yl)vinyl)benzyl)piperidine-2-carboxylic acid], the IC50 was 6.5 nM. The figure for `COc1cc(/C=C/c2cccc(-c3ccccc3)c2C)c(C(F)(F)F)cc1CN1CCCC[C@H]1C(=O)O` [Compound 6, (S,E)-1-(2-Methoxy-4-(2-(2-methyl-[1,1′-biphenyl]-3-yl)vinyl)-5-trifluoromethylbenzyl)piperidine-2-carboxylic acid] is 1.6 nM. With `COc1cc(/C=C/c2cccc(-c3ccccc3)c2C#N)c(C(F)(F)F)cc1CN1CCCC[C@H]1C(=O)O` [Compound 7, (S,E)-1-(4-(2-(2-Cyano-[1,1′-biphenyl]-3-yl)vinyl)-2-methoxy-5-trifluoromethylbenzyl)piperidine-2-carboxylic acid], the IC50 worked out at 1.9 nM. As to `Cc1cc(/C=C/c2cccc(-c3ccccc3)c2C#N)c(Cl)cc1CN1CCCC[C@H]1C(=O)O` [Compound 8, (S,E)-1-(5-Chloro-4-(2-(2-cyano-[1,1′-biphenyl]-3-yl)vinyl)-2-methylbenzyl)piperidine-2-carboxylic acid], the IC50 amounted to 1.6 nM. As for `Cc1cc(/C=C/c2cccc(-c3ccccc3)c2C#N)c(Cl)cc1CN1CCOC[C@H]1C(=O)O` [Compound 9, (S,E)-4-(5-Chloro-4-(2-(2-cyano-[1,1′-biphenyl]-3-yl)vinyl)-2-methylbenzyl)morpholine-3-carboxylic acid], the IC50 came out at 25.8 nM. On to `Cc1cc(CN2CCCC[C@H]2C(=O)O)c(C)cc1/C=C/c1cccc(-c2ccccc2)c1C#N` [Compound 10], for which the IC50 turned out to be 4.2 nM. As for `Cc1cc(CN2CCOC[C@H]2C(=O)O)c(C)cc1/C=C/c1cccc(-c2ccccc2)c1C#N` [Compound 11, (S,E)-4-(4-(2-(2-Cyano-[1,1′-biphenyl]-3-yl)vinyl)-2,5-dimethylbenzyl)morpholine-3-carboxylic acid], the IC50 is 10.1 nM. As for `Cc1cc(CN[C@@](C)(CO)C(=O)O)c(C)cc1/C=C/c1cccc(-c2ccccc2)c1C#N` [Compound 12, (S,E)-2-((4-(2-(2-Cyano-[1,1′-biphenyl]-3-yl)vinyl)-2,5-dimethylbenzyl)amino)-3-hydroxy-2-methylpropionic acid], the IC50 was found to be 3.4 nM. `Cc1cc(/C=C/c2cccc(-c3ccccc3)c2C#N)c(Cl)cc1CN1CCNC[C@H]1C(=O)O` [Compound 13, (S,E)-1-(5-Chloro-4-(2-(2-cyano-[1,1′-biphenyl]-3-yl)vinyl)-2-methylbenzyl)piperazine-2-carboxylic acid]: the IC50 came out at 46 nM. The figure for `Cc1cc(/C=C/c2cccc(-c3ccccc3)c2C#N)c(Cl)cc1CN1CCN(C)C[C@H]1C(=O)O` [Compound 14, (S,E)-1-(5-Chloro-4-(2-(2-cyano-[1,1′-biphenyl]-3-yl)vinyl)-2-methylbenzyl)-4-methylpiperazine-2-carboxylic acid] is 85.2 nM; for `Cc1cc(CN2CCCC[C@H]2C(=O)O)c(OCCCCC#N)cc1/C=C/c1cccc(-c2ccccc2)c1C#N` [Compound 15, (S,E)-1-(4-(2-(2-Cyano-[1,1′-biphenyl]-3-yl)vinyl)-2-(4-cyanobutoxy)-5-methylbenzyl)piperidine-2-carboxylic acid] it is 2.1 nM; for `Cc1cc(CNCC(=O)O)c(OCCCCC#N)cc1/C=C/c1cccc(-c2ccccc2)c1C#N` [Compound 16, (E)-(4-(2-(2-Cyano-[1,1′-biphenyl]-3-yl)vinyl)-2-(4-cyanobutoxy)-5-methylbenzyl)glycine] it is 14.5 nM. As to `Cc1cc(CN2CCOC[C@H]2C(=O)O)c(OCCCCC#N)cc1/C=C/c1cccc(-c2ccccc2)c1C#N` [Compound 17, (S,E)-4-(4-(2-(2-Cyano-[1,1′-biphenyl]-3-yl)vinyl)-2-(4-cyanobutoxy)-5-methylbenzyl)morpholine-3-carboxylic acid], the IC50 is 4.4 nM. For `Cc1cc(CN2CCNC[C@H]2C(=O)O)c(OCCCCC#N)cc1/C=C/c1cccc(-c2ccccc2)c1C#N` [Compound 18, (S,E)-1-(4-(2-(2-Cyano-[1,1′-biphenyl]-3-yl)vinyl)-2-(4-cyanobutoxy)-5-methylbenzyl)piperazine-2-carboxylic acid], the IC50 turned out to be 22.2 nM.

As to `Cc1cc(/C=C/c2cccc(-c3ccccc3)c2C#N)c(Cl)cc1CNCC(=O)O` [Compound 19, (E)-(5-Chloro-4-(2-(2-cyano-[1,1′-biphenyl]-3-yl)vinyl)-2-methylbenzyl)glycine], the IC50 came to 6.2 nM.

Consider `N#Cc1c(/C=C/c2cc(CO)c(CN3CCCC[C@H]3C(=O)O)cc2C(F)(F)F)cccc1-c1ccccc1` [Compound 20, (S,E)-1-(4-(2-(2-Cyano-[1,1′-biphenyl]-3-yl)vinyl)-2-hydroxymethyl-5-trifluoromethylbenzyl)piperidine-2-carboxylic acid], for which the IC50 turned out to be 3.7 nM. Under `N#Cc1c(/C=C/c2cc(CO)c(CN3CCOC[C@H]3C(=O)O)cc2C(F)(F)F)cccc1-c1ccccc1` [Compound 21, (S,E)-4-(4-(2-(2-Cyano-[1,1′-biphenyl]-3-yl)vinyl)-2-hydroxymethyl-5-trifluoromethylbenzyl)morpholine-3-carboxylic acid] stands 57.6 nM; under `Cc1cc(/C=C/c2cccc(-c3ccccc3)c2C)c(Cl)cc1CN1CCOC[C@H]1C(=O)O` [Compound 22, (S,E)-4-(5-Chloro-2-methyl-4-(2-(2-methyl-[1,1′-biphenyl]-3-yl)vinyl)benzyl)morpholine-3-carboxylic acid], 11.4 nM. Turning to `Cc1cc(/C=C/c2cccc(-c3ccccc3)c2C)c(Cl)cc1CN1CCNC[C@H]1C(=O)O` [Compound 23, (S,E)-1-(5-Chloro-2-methyl-4-(2-(2-methyl-[1,1′-biphenyl]-3-yl)vinyl)benzyl)piperazine-2-carboxylic acid], the IC50 is 186 nM. Consider `COCCOc1cc(/C=C/c2cccc(-c3ccccc3)c2C#N)c(C)cc1CN1CCCC[C@H]1C(=O)O` [Compound 24, (S,E)-1-(4-(2-(2-Cyano-[1,1′-biphenyl]-3-yl)vinyl)-2-(2-methoxyethoxy)-5-methylbenzyl)piperidine-2-carboxylic acid], for which the IC50 was found to be 6.8 nM.
